From patent US20240150839A1, “METHODS FOR PREDICTING RESPONSIVENESS OF PROSTATE CANCER PATIENTS TO PARP INHIBITORS” (Memorial Sloan Kettering Cancer Center, priority 2019, published 2024)

Experiments:
Type in all cases: cell-based, human
BRCA2-null LNCaP cells = assay: MTT cell growth of BRCA2 CRISPR-edited LNCaP cells with PARP inhibitors or cisplatin; settings: BRCA2 knockout LNCaP vs control gRNA (scr) cells; complete medium, 6 days (FIG. 7C)
Experimental: Cells infected with scrambled (scr) gRNA were used as control. Equal amount of proteins was loaded in WedgeWell 6% gel and western blot was performed. ˜400 kDa BRCA2 band is indicated by arrow. GAPDH served as loading controls for western blot and qPCR. […] Genotypes are detected by PCR amplification followed by being treated with T7 endonuclease. Wt and mutant BRCA2 are indicated by red and green arrows, respectively. […] Equivalent volume of DMSO was used as placebo treatment. Cell growth was measured by MTT assay (see Example 1); SD, P-values determined by Student's t-test. *P<0.05, **P<0.01, ***P<0.001. FIGS. 7D-7E show the growth curve (FIG. 7D) and a bar graph (FIG. 7E) representing the cell growth of LNCaP BRCA2 CRISPR-edited and non-targeting control gRNA (scr) infected cells in complete medium supplemented with enzalutamide (ENZ; indicated concentration) for 7 days or charcoal-stripped medium (CSS) for 5 days, respectively. Equivalent volume of DMSO was used as placebo treatment. Cell growth was measured by crystal violet staining assay (see Example 1) (±SD); P-values determined by Student's t-test. […] Equivalent volume of DMSO was used as placebo treatment. Cell growth was measured by MTT assay (see Example 1) (±SD); P-values determined by Student's t-test. […] Total RNA was isolated, and BRCA2 mRNA was analyzed by qPCR. […] Cell growth was measured by MTT assay; SD, P-values determined by Student's t-test.
To generate BRCA2 knockout RWPE1 cells, BRCA2 gRNA2 was cloned into LentiCRISPRv2-GFP backbone which constitutively expresses Cas9 and GFP. Lentiviral infected cells were selected by FACS sorting for GFP positive cells (twice) and analyzed by western blot. […] Loss of BRCA2 in the pooled populations of LNCaP cells was analyzed by western blot using BRCA2-specific antibodies and this pooled population of cells was used for the following experiments. […]
Cell Proliferation Assay by MTT, BrdU and Crystal Violet. […] MTT crystals were dissolved in isopropanol and absorbance was measured in a BioTek plate reader at […] and represented graphically.

LNCaP-BRCA2-RB1 cells = assay: MTT cell growth with PARP inhibitors; settings: LNCaP-BRCA2-RB1 vs BRCA2-null LNCaP; olaparib 3 μM, talazoparib 0.005 μM (FIG. 2E)
Experimental: (§1) Scr-CRISPR and BRCA2-CRISPR2 cells were also transfected with non-targeting shRNA (scr-Sh) for control of shRNA. RHoGDI served as the loading control. […] Equivalent volume of DMSO was used as placebo treatment. Cell growth was measured by MTT assay; SD, p-values were determined by Student's t-test. […] FIG. 2C (2nd and 3rd rows) show the immunofluorescence (400× magnification) of F-actin filament stained with phalloidin in indicated CRISPR/shRNA-infected LNCaP cells. Nuclei were stained with DAPI (blue). […] 5×10^3 indicated cells were plated on the top of Boyden chamber (see Example 1) in serum-free media; 10% serum in the bottom chamber was used as chemo-attractant. After 48 hours, cells in the lower side of the chamber were fixed, stained, and photographed (100× magnification). […] Nuclei were stained with DAPI (blue). […] The graphs show cell growth measured by MTT assay (±SD); P-values determined by Student's t-test. […] RNA sequencing was analyzed by Partek.
(§2) To generate BRCA2-RB1 knockout-knockdown LNCaP cells, parental LNCaP cells were first infected with lentivirus containing BRCA2 gRNA or scr gRNA. Pooled population of the stable cells were established by puromycin selection and analyzed by western blot and qPCR. BRCA2-knockout or scr LNCaP cells were infected with lentivirus containing RB1 shRNA followed by hygromycin selection. BRCA2-knockout or scr (gRNA) LNCaP cells also infected with lentiviral non-targeting shRNA (scr-shRNA) were used as control. Cells within 4-10 passages after stable selection were used for the following experiments.
(§3) Cell Proliferation Assay by MTT, BrdU and Crystal Violet. For MTT assay, cells were plated at 2.5×10^3 per well in 96-well plates in complete media (10% FBS) or media supplemented with 10% charcoal-stripped serum. Cells were either treated with DMSO or with indicated inhibitors. After indicated times, cells were incubated in 0.5 mg/mL MTT (Invitrogen) for 1 hour at 37° C. MTT crystals were dissolved in isopropanol and absorbance was measured in a BioTek plate reader at […] and represented graphically.

[1] = tested on: RB1 knockdown LNCaP cells; assay: MTT cell growth with PARP inhibitors; settings: RB1 knockdown vs control LNCaP cells; olaparib 3 μM, talazoparib 0.005 μM (FIG. 2E)
Experimental: as §1, §2, §3

22RV1 cells = assay: MTT cell growth with PARPi or cisplatin; settings: 22RV1, BRCA2 T3033Nfs*11, RB1-wt; cisplatin 500 nM, talazoparib 5 nM, 6 days (FIG. 11D)
Experimental: as §3, with “The ploidy of each cell line is indicated. […] Equivalent volume of DMSO was used as placebo treatment. Cell growth was measured by MTT assay (see Example 1); SD, each point indicates the MTT count of each well of 96-well plate, P-values determined by Student's t-test. **P<0.01, ****P<0.0001. […] Cell Proliferation” for “Cell Proliferation”

PC3M cells = assay: MTT cell growth with PARPi or cisplatin; settings: talazoparib 5 nM, 6 days, P<0.0001 (FIG. 11D)
Experimental: as §3, with “The ploidy of each cell line is indicated. […] Equivalent volume of DMSO was used as placebo treatment. Cell growth was measured by MTT assay (see Example 1); SD, each point indicates the MTT count of each well of 96-well plate, P-values determined by Student's t-test. **P<0.01, ****P<0.0001. […] Cell Proliferation” for “Cell Proliferation”

MSK-PCa1 organoid = assay: MTT growth of mCRPC organoids with PARPi; settings: compared to benign organoid; 3 days (FIG. 6E)
From the text: (§4) Near-diploid benign prostate organoid is used as a control. […] GAPDH served as the loading control. […] The graphs show cell growth measured by MTT assay (±SD); P-trends determined by 2-way ANOVA.
(§5) Cell Culture. Human prostate cancer cells LNCaP, 22RV1, DU145, PC3, and VCaP were obtained from ATCC (Manassas, VA). LNCaP-C42 cells were obtained from VitroMed (Burlington, NC). The LNCaP-Abl cell line, E006AA-T cells, PC3M LAPC4 cell line were obtained. These cells were maintained in 10% FBS (LNCaP, LNCaP-C42, LAPC4, VCaP, 22RV1, DU145, PC3, PC3M, and E006AA) or 10% charcoal-stripped serum (LNCaP-Abl) supplemented with 2 mM of L-glutamine and 1×antibiotic/antimycotic (Gemini Bio-Products, Sacramento, CA) at 37° C. in 5% CO2. Human prostate epithelial cell RWPE1 was obtained from ATCC and cultured in keratinocyte serum-free medium (Thermo Fisher Scientific, Waltham, MA) at 37° C. in 5% CO2. Cells were authenticated by human short tandem repeat profiling at the MSK Integrated Genomics Operation Core. Patient-derived human prostate cancer organoids were cultured as described. Gao et al., Cell 159:176-87 (2014).
as §3

MSK-PCa3 organoid = assay: MTT growth of mCRPC organoids with PARPi; settings: compared to benign organoid; 3 days (FIG. 6E)
From the text: as §4, §5, §3

Compound: Cn1ncnc1[C@H]1c2n[nH]c(=O)c3cc(F)cc(c23)N[C@@H]1c1ccc(F)cc1 [talazoparib]
- sensitivity (cell growth, MTT) (BRCA2-null LNCaP cells): more sensitivity
- cell growth inhibition (MTT) (LNCaP-BRCA2-RB1 cells): more cell growth inhibition
- inhibitory effect on cell growth (MTT) [1]: could not be detected
- sensitivity (cell growth, MTT) (22RV1 cells): modest sensitivity
- growth inhibition compared to olaparib (2.5 μM) (PC3M cells): more growth inhibition
- organoid growth (MTT) (MSK-PCa1 organoid): growth reduction
- organoid growth (MTT) (MSK-PCa3 organoid): growth reduction
